How the values were obtained:
[1] = target: T1, 20S Human Erythrocyte Proteasome (HEP) (Homo sapiens, UniProt P20618+P28074); experiment: Chymotrypsin-like activity of 20S Human Erythrocyte Proteasome (HEP), IC50 determination; assay type: biochemical; details: assay of Example C, inhibition of HEP
T1 construct: 20S Human Erythrocyte Proteasome (HEP), purchased from Immatics Biotechnologies Inc; purchased Immatics Biotechnologies Inc., Tübingen, Germany; host or cells: human erythrocytes (natural source)
In short: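 20S proteasome at 0.2 μg/mL (about 0.6 nM catalytic sites) in 20 mM Tris with 0.04% SDS, preincubated 15 min at 37° C with inhibitor before Suc-LLVY-AMC (100 μM final). AMC fluorescence read in the linear range; triplicates, IC50 from concentration series.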

[2] = target: T2, proteasome in Molt-4 cells (human leukemia) (Homo sapiens, UniProt P20618+P28074); assay type: cell-based; details: assay of Example E, inhibition of MOLT4; read-out: MOLT4 (EC50)
T2 sequence (P28074 60-263): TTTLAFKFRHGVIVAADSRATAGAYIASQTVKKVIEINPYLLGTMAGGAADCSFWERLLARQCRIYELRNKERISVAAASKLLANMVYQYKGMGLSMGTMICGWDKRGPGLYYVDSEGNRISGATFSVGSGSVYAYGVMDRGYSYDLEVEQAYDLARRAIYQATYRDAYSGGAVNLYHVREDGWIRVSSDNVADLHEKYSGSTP
T2 sequence (P20618 29-241): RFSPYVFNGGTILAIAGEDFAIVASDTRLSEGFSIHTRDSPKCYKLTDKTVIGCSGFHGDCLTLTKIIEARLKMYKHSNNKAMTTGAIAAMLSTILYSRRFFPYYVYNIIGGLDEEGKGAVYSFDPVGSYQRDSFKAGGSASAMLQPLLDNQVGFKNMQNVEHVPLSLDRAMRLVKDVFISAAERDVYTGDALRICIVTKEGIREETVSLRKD
Experimental: Cellular Assay for Chymotrypsin-like activity of Proteasome in Molt-4 Cell Line
The chymotrypsin-like activity of proteasome in Molt-4 cells (human leukemia) was assayed according to the following procedure. A brief description of the method was published previously (Harding et al., J. Immunol., 1995, 155, 1767).
Molt-4 cells were washed and resuspended in HEPES-buffered Saline (5.4 mM KCl, 120 mM NaCl, 25 mM Glucose, 1.5 mM MgSO4, 1 mM Na pyruvate, 20 mM Hepes) and plated in 96-well microtiter white plates to a final concentration of 6×10^6 cells/mL. Then various 5× proteasome inhibitor concentrations (or diluted DMSO for controls), prepared from 250×DMSO solutions by diluting 50-fold using HEPES-buffered saline, were added to the plate to a final 1× concentration. After 15 minutes incubation at 37° C., a fluorimetric cell permeable substrate (MeOSuc-FLF-AFC) (methoxysuccinyl-Phe-Leu-Phe-7-amido-4-trifluoromethylcoumarin) purchased from Enzyme Systems Products, catalogue number AFC-88, was added to each well at a final concentration of 25 μM from a stock solution of 20 mM in DMSO. Reaction volumes were 100 μl per well.
The concentration of free AFC was monitored every 1.5 min for 30 min ([…]) on a Polastar Optima, BMG Labtechnologies microplate reader, using an excitation wavelength of 390 nm and emission wavelength of 520 nm. Proteasome activity was determined under conditions in which substrate hydrolysis increased linearly with time and the change in fluorescent signal was proportional to the concentration of free AFC.
Determination of EC50 Values for Proteasome Inhibitors in MOLT-4 Cell Line
Inhibition of chymotrypsin-like activity of proteasome in Molt-4 cells was determined by incubating cells with various concentrations of putative inhibitors for 15 minutes at 37° C. prior to the addition of substrate. Each experimental condition was evaluated in triplicate, and replicate experiments were performed for the inhibitors described herein.

| IC50 [1] | EC50 [2] | SMILES |
| --- | --- | --- |
| < 10 nM | 2000 to 10000 nM | CC(C)=CCC[C@@H](C)CC(=O)N[C@@H](CCCNC(=N)N[N+](=O)[O-])C(=O)N[C@@H](CC(C)C)B(O)O [D.7.25, Boronic acid, [(1R)-1-[[(2S)-5-[[imino(nitroamino)methyl]amino]-2-[((3R)-3,7-dimethyloct-6-enoyl)amino]-1-oxopentyl]amino]-3-methylbutyl]] |
| < 10 nM | > 10000 nM | COC(=O)CCCCCCC(=O)N[C@@H](CCCNC(=N)N[N+](=O)[O-])C(=O)N[C@@H](CC(C)C)B(O)O [E.1.22, Boronic acid, [(1R)-1-[[(2S)-5-[[imino(nitroamino)methyl]amino]-2-[[7-(methoxycarbonyl)heptanoyl]amino]-1-oxopentyl]amino]-3-methylbutyl]] |
| < 100 nM | 2000 to 10000 nM | CC(C)C[C@H](NC(=O)[C@H](CCCNC(=N)N[N+](=O)[O-])NC(=O)CCCCCO)B1O[C@@H]2C[C@@H]3C[C@@H](C3(C)C)[C@]2(C)O1 [D.3.192, 6-hydroxyhexanamide, N-[(1S)-1-[[[(1R)-1-[(3aS,4S,6S,7aR)-hexahydro-3a,5,5-trimethyl-4,6-methano-1,3,2-benzodioxaborol-2-yl]-3-methylbutyl]amino]carbonyl]-4-[[imino(nitroamino)methyl]amino]butyl]] |
| < 10 nM | 2000 to 10000 nM | CC(C)C[C@H](NC(=O)[C@H](CCCNC(=N)N[N+](=O)[O-])NC(=O)CCCc1cccs1)B(O)O [D.7.19, Boronic acid, [(1R)-1-[[(2S)-5-[[imino(nitroamino)methyl]amino]-2-[[4-(thiophen-2-yl)butanoyl]amino]-1-oxopentyl]amino]-3-methylbutyl]] |
| < 10 nM | 200 to 2000 nM | CC(C)C[C@H](NC(=O)[C@H](CCCNC(=N)N[N+](=O)[O-])NC(=O)COc1ccc2ccccc2c1)B(O)O [E.1.11, Boronic acid, [(1R)-1-[[(2S)-5-[[imino(nitroamino)methyl]amino]-2-[(2-(naphthalen-2-yloxy)acetyl]amino]-1-oxopentyl]amino]-3-methylbutyl]] |
| < 10 nM | > 10000 nM | CCOc1ccc(C(=O)N[C@@H](CCCNC(=N)N[N+](=O)[O-])C(=O)N[C@@H](CC(C)C)B(O)O)cc1 [D.7.31, Boronic acid, [(1R)-1-[[(2S)-5-[[imino(nitroamino)methyl]amino]-2-[(4-ethoxybenzoyl)amino]-1-oxopentyl]amino]-3-methylbutyl]] |
| < 10 nM | < 200 nM | CC(C)C[C@H](NC(=O)[C@@H](NC(=O)CCCc1ccccc1)[C@@H](C)O)B(O)O [E.1.23, Boronic acid, [(1R)-1-[[(2S,3R)-3-hydroxy-2-[(4-phenylbutanoyl)amino]-1-oxobutyl]amino]-3-methylbutyl]] |
| < 10 nM | > 10000 nM | CC(C)C[C@H](NC(=O)[C@H](CCCNC(=N)N[N+](=O)[O-])NC(=O)/C=C/c1cccs1)B(O)O [D.7.23, Boronic acid, [(1R)-1-[[(2S)-5-[[imino(nitroamino)methyl]amino]-2-[[3-(thiophen-2-yl)propenoyl]amino]-1-oxopentyl]amino]-3-methylbutyl]] |
| < 10 nM | 2000 to 10000 nM | CC(C)C[C@H](NC(=O)[C@H](CCCNC(=N)N[N+](=O)[O-])NC(=O)c1ccc(C(C)(C)C)cc1)B(O)O [E.2.8, Boronic acid, [(1R)-1-[[(2S)-5-[[imino(nitroamino)methyl]amino]-2-[(4-(1,1-dimethylethyl)benzoyl)amino]-1-oxopentyl]amino]-3-methylbutyl]] |

Further lines, the compound ahead of its results:

| SMILES | IC50 [1] | EC50 [2] |
| --- | --- | --- |
| Cc1ccc(/C=C/C(=O)N[C@@H](CCCNC(=N)N[N+](=O)[O-])C(=O)N[C@@H](CC(C)C)B2O[C@@H]3C[C@@H]4C[C@@H](C4(C)C)[C@]3(C)O2)cc1 [D.3.62, 3-(4-Methylphenyl)acrylamide,N-[(1S)-1-[[[(1R)-1-[(3aS,4S,6S,7aR)-hexahydro-3a,5,5-trimethyl-4,6-methano-1,3,2-benzodioxaborol-2-yl]-3-methylbutyl]amino]carbonyl]-4-[[imino(nitroamino)methyl]amino]butyl]] | < 10 nM | < 200 nM |
| CCCCOCC(=O)N[C@@H](CCCNC(=N)N[N+](=O)[O-])C(=O)N[C@@H](CC(C)C)B(O)O [E.1.7, Boronic acid, [(1R)-1-[[(2S)-5-[[imino (nitroamino)methyl]amino]-2-[(2-butoxyacetyl)amino]-1-oxopentyl]amino]-3-methylbutyl]] | < 10 nM | 2000 to 10000 nM |
| CCCCCCCCCCCCC(=O)N[C@@H](CCCNC(=N)N[N+](=O)[O-])C(=O)N[C@@H](CC(C)C)B1O[C@@H]2C[C@@H]3C[C@@H](C3(C)C)[C@]2(C)O1 [D.3.119, Tridecanamide,N-[(1S)-1-[[[(1R)-1-[(3aS,4S,6S,7aR)-hexahydro-3a,5,5-trimethyl-4,6-methano-1,3,2-benzodioxaborol-2-yl]-3-methylbutyl]amino]carbonyl]-4-[[imino(nitroamino)methyl]amino]butyl]] | < 10 nM | < 200 nM |
| CCCCCCCCCC(=O)N[C@@H](CCCNC(=N)N[N+](=O)[O-])C(=O)N[C@@H](CC(C)C)B1O[C@@H]2C[C@@H]3C[C@@H](C3(C)C)[C@]2(C)O1 [D.3.1, Decanamide,N-[(1S)-1-[[[(1R)-1-[(3aS,4S,6S,7aR)-hexahydro-3a,5,5-trimethyl-4,6-methano-1,3,2-benzodioxaborol-2-yl]-3-methylbutyl]amino]carbonyl]-4-[[imino(nitroamino)methyl]amino]butyl]] | < 10 nM | < 200 nM |
| CCOc1ccc(C(=O)N[C@@H](CCCNC(=N)N[N+](=O)[O-])C(=O)N[C@@H](CC(C)C)B2O[C@@H]3C[C@@H]4C[C@@H](C4(C)C)[C@]3(C)O2)cc1 [D.3.91] | < 10 nM | < 200 nM |
| CC(C)C[C@H](NC(=O)[C@H](CCCNC(=N)N[N+](=O)[O-])NC(=O)CCCCCCCCCN1C(=O)c2ccccc2C1=O)B1O[C@@H]2C[C@@H]3C[C@@H](C3(C)C)[C@]2(C)O1 [D.2, 10-(1,3-Dioxo-1,3-dihydro-isoindol-2-yl)-decanamide, N-[(1S)-1-[[[(1R)-1-[(3aS,4S,6S,7aR)-hexahydro-3a,5,5-trimethyl-4,6-methano-1,3,2-benzodioxaborol-2-yl]-3-methylbutyl]amino]carbonyl]-4-[[imino(nitroamino)methyl]amino]butyl]-;] | < 10 nM | < 200 nM |
| CC(C)C[C@H](NC(=O)[C@H](CCCNC(=N)N[N+](=O)[O-])NC(=O)c1ccc(Br)cc1)B1O[C@@H]2C[C@@H]3C[C@@H](C3(C)C)[C@]2(C)O1 [D.3.24, 4-Bromobenzamide,N-[(1S)-1-[[[(1R)-1-[(3aS,4S,6S,7aR)-hexahydro-3a,5,5-trimethyl-4,6-methano-1,3,2-benzodioxaborol-2-yl]-3-methylbutyl]amino]carbonyl]-4-[[imino(nitroamino)methyl]amino]butyl]] | < 10 nM | < 200 nM |
| CC(C)C[C@H](NC(=O)[C@H](CCCNC(=N)N[N+](=O)[O-])NC(=O)CCCCCCCc1ccccc1)B1O[C@@H]2C[C@@H]3C[C@@H](C3(C)C)[C@]2(C)O1 [D.3.117, 8-Phenyl-octanamide,N-[(1S)-1-[[[(1R)-1-[(3aS,4S,6S,7aR)-hexahydro-3a,5,5-trimethyl-4,6-methano-1,3,2-benzodioxaborol-2-yl]-3-methylbutyl]amino]carbonyl]-4-[[imino(nitroamino)methyl]amino]butyl]] | < 10 nM | < 200 nM |
| CCCCCC(=O)N[C@H](C(=O)N[C@@H](CC(C)C)B1O[C@@H]2C[C@@H]3C[C@@H](C3(C)C)[C@]2(C)O1)[C@@H](C)O [D.3.178, Hexanamide,N-[(1S,2R)-1-[[[(1R)-1-[(3aS,4S,6S,7aR)-hexahydro-3a,5,5-trimethyl-4,6-methano-1,3,2-benzodioxaborol-2-yl]-3-methylbutyl]amino]carbonyl]-2-hydroxypropyl]] | < 100 nM | < 200 nM |

— US8546608B2, “Proteasome inhibitors and methods of using the same” (Cephalon, Inc., priority 2003, dated 2013)
